Data reported in the supplement of paper PMC10949913.
Where “and” joins values, the source holds several entries; their conditions need not be identical. Equal entries are not always repeated.

Tests used:
Test in all cases: area under concentration-response curve (viability) (AUC (a.u.)); higher = less active
Settings in all cases: 48 h
[1] = test system: NCI-H295R
How it was run: (§1)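 Three adrenocortical carcinoma cell lines were exposed for 48 h to library compounds at 11 concentrations in 1,536-well plates, then read by CellTiter-Glo luminescence. Signals were scaled per plate against vehicle and empty-well controls. From fitted concentration-response curves of inhibitory or non-responding classes alone, AC50 and area under the curve were obtained.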

[2] = test system: CU-ACC1
How it was run: as §1

[3] = test system: CU-ACC2
How it was run: as §1

| Compound | area under concentration-response curve [1] | area under concentration-response curve [2] | area under concentration-response curve [3] |
| --- | --- | --- | --- |
| Cc1nc2c([nH]1)-c1ccccc1N(C(=O)c1ccc(NC(=O)c3ccccc3-c3ccccc3)cc1)CC2 | 487 | 437 | 542 |
| COc1nc(-c2ccc3c(c2)OCO3)n(-c2ccc(NC(=O)CSc3ccccc3)cc2)n1 | 573 | 408 | 611 |
| CNC(=O)[C@H](Cc1c[nH]c2ccccc12)NC(=O)[C@@H](CC(=O)NO)CC(C)C | 460 | 473 | 492 |
| Cc1nc(-c2cccnc2)sc1C(=O)Nc1ccccc1-c1cn2c(CN3CCOCC3)csc2n1 | 504 | 454 | 456 |
| CC(NC1=CC=CC=C1)C\2=C\C(=C/N3C(=O)\C=C(/N=C23)N4CCOCC4)C (stereo unspecified) | 583 | 414 | 647 |
| COc1ccc([C@@H](O)[C@@H](C)Oc2ccc([C@H]3O[C@H](c4ccc(O[C@H](C)[C@H](O)c5ccc(OC)c(OC)c5)c(OC)c4)[C@H](C)[C@H]3C)cc2OC)cc1OC | 479 | 269 | 575 |
| COc1cc2c(cc1OC)CN(CCc1ccc(NC(=O)c3cccc4c(=O)c5cccc(OC)c5[nH]c34)cc1)CC2 | 567 | 575 | 621 |
| Oc1ccc(-c2nc(-c3ccncc3)c(-c3ccc(F)cc3)[nH]2)cc1 | 475 | 493 | 574 |
| NC(=O)c1cccc(-c2cccc(OC(=O)NC3CCCCC3)c2)c1 | 470 | 480 | 485 |
| CCOC(=O)[C@H](CCc1ccccc1)N[C@H]1CS[C@H](c2cccs2)CN(CC(=O)O)C1=O.Cl | 541 | 513 | 584 |
| CC(/C=C1\SC(=S)N(CC(=O)O)C1=O)=C\c1ccccc1 | 492 | 494 | 594 |
| O=C1CCc2ccc(OCCCCN3CCN(c4cccc(Cl)c4Cl)CC3)cc2N1 | 544 | 468 | 593 |
| CCOC(=O)[C@H](CCc1ccccc1)N[C@H]1CCc2ccccc2N(CC(=O)O)C1=O | 520 | 492 | 592 |
| NCCc1c[nH]cn1 | 548 | 416 | 605 |
| C[C@]\1(CCS\C(=N1)N)C2=CC(=C(F)C=C2F)C3=CN=CN=C3 | 509 | 478 | 544 |
| Nc1cccc2c1C(=O)N(C1CCC(=O)NC1=O)C2=O (stereo unspecified) | 567 | 520 | 645 |
| COc1cc([C@@H]2c3cc4c(cc3[C@@H](O)C3COC(=O)C32)OCO4)cc(OC)c1O (stereo partly specified) | 511 | 500 | 559 |
| O=C1NC(=O)/C(=C/c2cccc(C(F)(F)F)c2)S1 | 449 | 463 | 511 |
| COc1ccc(-c2cc(=O)c3c(O)cc(O)cc3o2)cc1O | 437 | 452 | 447 |
| N[S+]([O-])(=O)C1=C(Cl)C=C2\N=C/N[S+]([O-])(=O)C2=C1 | 576 | 548 | 646 |
| CC[C@@H](C(N)=O)N1CCCC1=O | 545 | 532 | 520 |
| CCc1c(C(=O)C(N)=O)c2c(OCC(=O)O)cccc2n1Cc1ccccc1 | 550 | 572 | 599 |
| N#Cc1c(N(CC(=O)[O-])CC(=O)[O-])sc(C(=O)[O-])c1CC(=O)[O-] | 497 | 478 | 544 |
| N[C@@H]1CN(CC12CC2)C3=C(F)C=C4C(=O)\C(=C/N([C@@H]5C[C@@H]5F)C4=C3Cl)C(O)=O | 381 | 390 | 426 |

| Compound | area under concentration-response curve [1] | area under concentration-response curve [2] | area under concentration-response curve [3] |
| --- | --- | --- | --- |
| Cc1nc(-c2ccc(OCC(C)C)c(C#N)c2)sc1C(=O)O | 306 | 478 | 544 |
| O=C(O)CC(C(=O)O)N1C(=O)/C(=C2/C(=O)Nc3ccc(Br)cc32)SC1=S (stereo unspecified) | 567 | 569 | 593 |
| CC(C)(Sc1ccc(CCN(CCCCC2CCCCC2)C(=O)NC2CCCCC2)cc1)C(=O)O | 501 | 506 | 585 |
| N#C/C(=C\c1ccc(O)c(O)c1)C(=O)NCc1ccccc1 | 572 | 427 | 605 |
| C[C@]12COC(=O)C[C@@H]1CC[C@@H]1[C@@H]2CC[C@@]2(C)[C@H]1CC[C@]2(C)O | 447 | 448 | 482 |
| CN[C@@H](C)C(=O)N[C@@H]1C(=O)N(Cc2c(C)ccc3ccccc23)c2ccc(C#N)cc2N(C(C)=O)[C@H]1C | 549 | 501 | 474 |
| COC12C(COC(N)=O)\C3=C(/N1CC4C2N4C)C(=O)C(=C(N)/C3=O)\C (stereo unspecified) | 507 | 506 | 544 |
| CC(C)(CO)[C@@H](O)C(=O)NCCC(=O)O | 509 | 506 | 487 |
| C[C@H](NC(=O)CCC(F)(F)F)C(=O)N[C@@H]1C(=O)N(CCO)c2ncccc2-c2ccccc21 | 475 | 472 | 511 |
| C/C1=C2/[N]3[Co+]456([OH])<-[N]7=C1[C@@H](CCC(N)=O)C(C)(C)/C7=C/C1=[N]->4C(=C(/C)C4=[N]->5[C@@](C)([C@H]3[C@H](CC(N)=O)[C@@]2(C)CCC(=O)NC[C@@H](C)OP(=O)([O-])O[C@H]2[C@@H](O)[C@@H](n3c[n]->6c5cc(C)c(C)cc53)O[C@@H]2CO)[C@@](C)(CC(N)=O)[C@@H]4CCC(N)=O)/[C@@](C)(CC(N)=O)[C@@H]1CCC(N)=O | 564 | 495 | 595 |
| Cc1nc2ccc(-n3ncc(C(=O)c4cc5ccccc5[nH]4)c3N)cc2[nH]1 | 519 | 550 | 595 |
| COc1ccc(/C=C/C(=O)Nc2ccccc2C(=O)O)cc1OC | 496 | 439 | 517 |
| CN\1N(C(=O)\C(=C1C)C(=O)NC2=CC=C(OC3=CC=NC4=C3C(=C[NH]4)C5=CC=CC=C5)C(=C2)F)C6=CC=C(F)C=C6 | 535 | 522 | 525 |
| CC(C)(OCc1nn(Cc2ccccc2)c2ccccc12)C(=O)O | 491 | 416 | 460 |
| C[S+](=O)([O-])N(Cc1ccco1)CC(O)Cn1c2ccccc2c2ccccc21 (stereo unspecified) | 473 | 477 | 515 |
| CCC/1=C(/NC2=C(C=N[N]2C1=O)C#N)C3=CC=CC=C3C | 552 and 522 | 550 and 493 | 577 and 487 |
| O=C1C[C@@H](c2ccc(O)cc2)Oc2cc(O)cc(O)c21 | 485 | 345 | 484 |
| CC(Oc1ccc(O)cc1)(P(=O)(O)O)P(=O)(O)O | 458 | 456 | 508 |
| OC(CCN1CCCCC1)(C2CC\3CC2\C=C3)C4=CC=CC=C4 (stereo unspecified) | 519 | 522 | 582 |
| Cc1ccsc1C(=CCCN1CCC[C@@H](C(=O)O)C1)c1sccc1C | 541 | 488 | 593 |
| N#Cc1ccc(C2CCCc3cncn32)cc1 (stereo unspecified) | 479 | 503 | 544 |
| CC1COC2=C3N1\C=C(C(O)=O)/C(=O)C3=CC(=C2N4CCN(C)CC4)F (stereo unspecified) | 517 | 474 | 537 |
| C=C[C@H]1CN2CC[C@H]1C[C@H]2[C@H](O)c1ccnc2ccc(OC)cc12 | 521 | 501 | 602 |
